Measurements reported in PubChem BioAssay (NCI).
“And” between values parts separate entries of the source, which are not always exact repeats. Equal entries are not always repeated.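 Dose response: 5 concentrations. Exposure: 48 h. Format: 96-well plates. Endpoint: linear interpolation; highest concentration if not reached. GI50 marks 50% less growth. The concentration for full growth arrest is given as TGI.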 The source made the active and inactive calls. Cut-off read from the data, not from the text of the source: active = GI50 below about 0.43 µM; inactive = the rest.

Legend:
Test in all cases: NCI tumour cell line growth inhibition, 48 h
CAKI-1 renal = system: CAKI-1 renal
HCT-15 colon = system: HCT-15 colon
KM20L2 colon = system: KM20L2 colon
MCF7 breast = system: MCF7 breast
OVCAR-8 ovarian = system: OVCAR-8 ovarian
RXF 393 renal = system: RXF 393 renal
SF-295 CNS = system: SF-295 CNS
SNB-19 CNS = system: SNB-19 CNS
SR leukemia = system: SR leukemia

SMILES	GI50 (CAKI-1 renal)	TGI (CAKI-1 renal)	GI50 (HCT-15 colon)	TGI (HCT-15 colon)	TGI (KM20L2 colon)	GI50 (MCF7 breast)	TGI (MCF7 breast)	GI50 (OVCAR-8 ovarian)	TGI (OVCAR-8 ovarian)	GI50 (RXF 393 renal)	TGI (RXF 393 renal)	GI50 (SF-295 CNS)	TGI (SF-295 CNS)	GI50 (SNB-19 CNS)	TGI (SNB-19 CNS)	GI50 (SR leukemia)	TGI (SR leukemia)	outcome (KM20L2 colon)	GI50 (KM20L2 colon)
Cc1cc2nc3ccc(=[N+](C)C)cc-3sc2cc1N	2300 nM and 1560 nM	12.8 µM and > 55.9 µM and 10.2 µM	384 nM and 630 nM	10.9 µM and 18.6 µM and 6.98 µM	41.5 µM	326 nM and 405 nM	1870 nM and 6050 nM and 2790 nM	270 nM and 800 nM	1.99 µM and 7.22 µM and 7.3 µM	1700 nM and 1940 nM	6.93 µM and 22.2 µM and 8.17 µM	473 nM and 554 nM	5.27 µM and 14.5 µM and 4.83 µM	782 nM	10.5 µM and 8.99 µM and 9.55 µM	419 nM and 544 nM			
C=C1COC(O)(C2OCOC(C3CC(=O)NC(=O)C3)C2O)C1C (centres undefined)	3.94 nM and 19 nM		3.63 nM and 12.7 nM		0.0281 µM and 0.0721 µM			4.25 nM and 10.4 nM	0.0413 µM and 0.0509 µM	1.34 nM	0.00759 µM and 0.0177 µM and 0.0104 µM	2.49 nM	0.018 µM and 0.0423 µM	3.6 nM			0.00841 µM		
NC(=O)c1ncn(CCN2CCN(C(=O)NCCCCCCNC(=O)N3CCN(CCn4cnc(C(N)=O)c4N)CC3)CC2)c1N		> 100 µM		> 100 µM	> 100 µM				> 100 µM		> 100 µM		> 100 µM		> 100 µM		> 100 µM		
O=C(/C=C/c1ccccc1Cl)c1cccc2ccccc12		25.4 µM		17.2 µM	19.6 µM				4.19 µM		28.6 µM		25.4 µM		16.8 µM		9.16 µM		
COC(C(=O)C(O)C(C)O)C1Cc2cc3cc(OC4CC(OC5CC(O)C(O)C(C)O5)C(O)C(C)O4)c(C)c(O)c3c(O)c2C(=O)C1OC1CC(OC2CC(O)C(OC3CC(C)(O)C(O)C(C)O3)C(C)O2)C(O)C(C)O1 (centres undefined)	11.2 ng/mL and 0.362 ng/mL	0.0484 µg/mL and 0.0414 µg/mL	0.244 µg/mL and 0.00299 µg/mL	2.65 µg/mL and 1.5 µg/mL		0.53 ng/mL	0.73 µg/mL	11.2 ng/mL and 0.822 ng/mL		11.2 ng/mL and 0.246 ng/mL		18.5 ng/mL and 0.389 ng/mL		0.0402 µg/mL	> 150 µg/mL	0.0112 µg/mL and 1.91 µg/mL	112 µg/mL and > 150 µg/mL	inactive	
Cc1ccc(NC(=O)CC/C(CC(=O)C(C)(C)C)=N/NC(=O)C[N+](C)(C)C)cc1C		> 100 µM		> 100 µM	> 100 µM				> 100 µM		> 100 µM		> 100 µM		> 100 µM		> 100 µM		
C=C(C)C1CC=C(C)CC1 (centres undefined)	> 100000 nM	> 100 µM and 1680 µM		1620 µM	> 100 µM and 1750 µM			> 100000 nM	> 100 µM and 1860 µM	> 100000 nM	> 100 µM and 1730 µM	> 100000 nM	> 100 µM and 1630 µM	> 100000 nM	> 100 µM and 1870 µM	> 100000 nM	> 100 µM and 2050 µM		> 100 µM
COC(=O)C1=Cc2cc(OC)c(OC)cc2[C@H](c2ccc(OC)c(OC)c2)C1C(=O)OC (some centres undefined)		> 100 µM		> 100 µM	> 100 µM				> 100 µM		> 100 µM		> 100 µM		> 100 µM		> 100 µM		
COc1cccc(NC(=O)C(C)(C)C)c1SSc1c(NC(=O)C(C)(C)C)cccc1OC		> 60.3 µM		44.4 µM	> 100 µM				35.4 µM		35.3 µM		> 100 µM		> 100 µM		55.3 µM		
N#Cc1cc([N+](=O)[O-])ccc1NC(=O)C(F)(F)F		> 100 µM		> 58.5 µM	> 100 µM				> 100 µM		> 100 µM		> 100 µM		> 100 µM		> 100 µM		
